The record followed here is ChEMBL document CHEMBL1142015, “New derivatives of 1alpha,25-dihydroxy-19-norvitamin D3 with two substituents at C-2: synthesis and biological activity” (Bioorg Med Chem Lett, 2005).

Each structure is given as a SMILES string. Several values for one entry are separate records, joined by “and”; a condition that tells them apart may be missing. Equal entries are not always repeated.

Experiment [1] has as its target T1, Vitamin D3 receptor (Bos taurus) (UniProt Q28037).
T1 sequence (whole entry): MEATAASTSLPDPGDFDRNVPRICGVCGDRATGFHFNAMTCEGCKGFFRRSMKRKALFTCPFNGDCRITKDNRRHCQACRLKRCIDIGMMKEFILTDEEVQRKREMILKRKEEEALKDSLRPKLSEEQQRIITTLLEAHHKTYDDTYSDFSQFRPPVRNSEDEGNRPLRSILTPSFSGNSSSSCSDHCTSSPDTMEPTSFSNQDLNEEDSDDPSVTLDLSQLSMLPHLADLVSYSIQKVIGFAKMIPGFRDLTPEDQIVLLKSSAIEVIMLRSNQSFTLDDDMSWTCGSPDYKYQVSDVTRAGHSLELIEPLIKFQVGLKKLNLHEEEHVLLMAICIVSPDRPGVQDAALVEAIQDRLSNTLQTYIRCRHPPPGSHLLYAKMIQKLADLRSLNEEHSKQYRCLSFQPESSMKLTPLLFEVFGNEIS
The experiment is described as follows: Percent binding affinity for bovine vitamin D receptor compared to 2-Me-1-alpha,2,5-dihydroxy-19-norvitamin D3.

The target of experiment [2] is T1, Vitamin D3 receptor (Bos taurus). The experiment is described as follows: Percent binding affinity for bovine vitamin D receptor compared to 1a.
Experiment [3] addresses T2, Vitamin D3 receptor (Homo sapiens) (UniProt P11473).
T2 sequence (whole entry): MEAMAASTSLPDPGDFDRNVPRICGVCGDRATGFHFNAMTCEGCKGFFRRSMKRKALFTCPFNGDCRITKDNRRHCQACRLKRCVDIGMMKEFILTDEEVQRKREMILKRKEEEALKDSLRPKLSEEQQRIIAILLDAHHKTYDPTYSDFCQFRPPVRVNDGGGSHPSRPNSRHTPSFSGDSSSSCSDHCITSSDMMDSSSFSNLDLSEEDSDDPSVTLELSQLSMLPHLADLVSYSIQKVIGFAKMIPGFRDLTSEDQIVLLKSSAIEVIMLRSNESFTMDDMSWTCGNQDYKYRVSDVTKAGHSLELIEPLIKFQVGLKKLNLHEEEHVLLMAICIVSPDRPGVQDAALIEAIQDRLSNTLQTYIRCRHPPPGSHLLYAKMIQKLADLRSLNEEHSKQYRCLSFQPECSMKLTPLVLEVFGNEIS
Briefly: Activation of vitamin D receptor in COS-7 cell transcription assay. It counts as functional, cell-based.

Experiment [4] concerns the target T2, Vitamin D3 receptor (Homo sapiens). The experiment is described as follows: Percent activation of vitamin D receptor in COS-7 cell transcription assay at 10e-8 or 10e-9 M. Format: functional, cell-based.
For experiment [5], the target named is T1, Vitamin D3 receptor (Bos taurus). Briefly: Percent binding affinity for bovine vitamin D receptor compared to 2-Et-1-alpha,2,5-dihydroxy-19-norvitamin D3.

`C[C@H](CCCC(C)(C)O)[C@H]1CC[C@H]2/C(=C\C=C3C[C@@H](O)C(C)(O)[C@H](O)C3)CCC[C@]12C` (stereo partly specified): in experiment [1], the VDR affinity is 21% and 2.6%. Regarding `COCC1(O)[C@H](O)CC(=C/C=C2/CCC[C@]3(C)[C@@H]([C@H](C)CCCC(C)(C)O)CC[C@@H]23)C[C@H]1O` (stereo partly specified), the VDR affinity in experiment [2] is 4% and 0.1%. On to `C[C@@H](CCCC(C)(C)O)[C@H]1CC[C@H]2/C(=C\C=C3C[C@@H](O)C4(CO4)[C@H](O)C3)CCC[C@]12C` (stereo partly specified), for which the ED50 in experiment [3] is 89 nM and 18 nM. Molecule `C=C1/C(=C\C=C2/CCC[C@]3(C)[C@@H]([C@H](C)CCCC(C)(C)O)CC[C@@H]23)C[C@@H](O)C[C@@H]1O` returned a VDR affinity in experiment [2] of 100%.

In the case of `C[C@@H](CCCC(C)(C)O)[C@H]1CC[C@H]2/C(=C\C=C3C[C@@H](O)C(C)(O)[C@H](O)C3)CCC[C@]12C` (stereo partly specified), the VDR affinity in experiment [1] was 23% and 18%; in experiment [2], 100%. Moreover, the ED50 in experiment [3] turned out to be 3200 nM. On to `C[C@H](CCCC(C)(C)O)[C@H]1CC[C@H]2/C(=C\C=C3C[C@@H](O)C(O)(CF)[C@H](O)C3)CCC[C@]12C` (stereo partly specified), for which the VDR affinity in experiment [2] was 2% and 0.02%.

In the case of `C[C@H](CCCC(C)(C)O)[C@H]1CC[C@H]2/C(=C\C=C3C[C@@H](O)C4(CO4)[C@H](O)C3)CCC[C@]12C` (stereo partly specified), the ED50 in experiment [3] was 5 nM and 4 nM. Further, the VDR affinity in experiment [2] is 4% and 3%. Consider `COCC1(O)[C@H](O)CC(=C/C=C2/CCC[C@]3(C)[C@@H]([C@@H](C)CCCC(C)(C)O)CC[C@@H]23)C[C@H]1O` (stereo partly specified), for which the VDR affinity in experiment [2] is 20% and 10%. As for `CCC1(O)[C@H](O)CC(=C/C=C2/CCC[C@]3(C)[C@@H]([C@H](C)CCCC(C)(C)O)CC[C@@H]23)C[C@H]1O` (stereo partly specified), the VDR affinity in experiment [2] was 2% and 0.05%. Molecule `C[C@@H](CCCC(C)(C)O)[C@H]1CC[C@H]2/C(=C\C=C3C[C@@H](O)C(O)(CF)[C@H](O)C3)CCC[C@]12C` (stereo partly specified) gave a VDR affinity in experiment [2] of 60%. For `CCC1(O)[C@H](O)CC(=C/C=C2/CCC[C@]3(C)[C@@H]([C@@H](C)CCCC(C)(C)O)CC[C@@H]23)C[C@H]1O` (stereo partly specified), the Transcriptional activity in experiment [4] amounted to 92%. Moreover, the VDR affinity in experiment [5] amounted to 200%; in experiment [2] it was 5%.
